From patent publication US20060264406A1, “Mono-lysine salts of azole compounds” (Eisai Co., Ltd., priority 2005, published 2006)
Where a name gives a salt, the structure may show the parent alone.

Columns and labels:
Type in all cases: physicochemical
[1] = moisture uptake (weight change versus relative humidity); conditions: 60% RH
Text: Weight change (y-axis) versus relative humidity (x-axis) is shown, wherein adsorption is shown by -∘-, and desorption by -∘-.
For instance, Comparative Example 1 has about 10% change in weight at 60% RH (FIG. 1), whereas Example 1 has about 2-2.5% change in weight at the same humidity level (FIG. 2). On average, the mono-lysine salt or solvate thereof has better stability over the bis-lysine form (FIG. 4).

[2] = aqueous solubility of the salts and solvates; conditions: water
Description: The obtained solvate of the mono-lysine salt of ((2R,3R)-3-(4-(4-cyanophenyl)thiazol-2-yl)-2-(2,4-difluorophenyl)-1-(1H-1,2,4-triazol-1-yl)butan-2-yloxy)methyl dihydrogen phosphate is scaled up and fully characterized. Physical-chemical properties including solubility, stability, moisture uptake, compaction, etc., are evaluated and compared to the bis-lysine salt of Comparative Example 1.
Also, Example 1 retains a high aqueous solubility (>200 mg/mL) similar to that of the bis-lysine salt of Comparative Example 1.

[3] = physical stability under stressed storage conditions (area percent); conditions: for degradation on storage: 2-week stability data

C[C@@H](c1nc(-c2ccc(C#N)cc2)cs1)[C@@](Cn1cncn1)(OCOP(=O)(O)O)c1ccc(F)cc1F.NCCCC[C@H](N)C(=O)O.NCCCC[C@H](N)C(=O)O [Comparative Example 1, Bis-lysine salt of (2R,3R)-3-[4-(4-cyanophenyl)thiazol-2-yl]-2-(2,4-difluorophenyl)-1-(1H-1,2,4-triazol-1-yl)-2-[(dihydrogenphosphonoxy)methoxy]butane, reference compound]
change in weight (moisture uptake) [1]: about 10% | change in weight (moisture uptake) ([1]; listed as bis-lysine monoethanolate): 10%

C[C@@H](c1nc(-c2ccc(C#N)cc2)cs1)[C@@](Cn1cncn1)(OCOP(=O)(O)O)c1ccc(F)cc1F [Example 1, ((2R,3R)-3-(4-(4-cyanophenyl)thiazol-2-yl)-2-(2,4-difluorophenyl)-1-(1H-1,2,4-triazol-1-yl)butan-2-yloxy)methyl dihydrogen phosphate mono-lysine salt ethanol solvate]
Solubility [2]: >200 mg/mL | solubility [2]: > 200 mg/mL | change in weight (moisture uptake) [1]: 2-2.5% | weight change for adsorption [1]: < 2.5% | weight change for desorption [1]: < 5% | change in weight (moisture uptake) ([1]; listed as mono-lysine monoethanolate): 2-3% | degradation on storage ([3]; 40° C./75% RH (open and closed)): minimal degradation | degradation on storage ([3]; any other storage conditions): No degradation | Area Percent (AP as phosphonoxoxymethyl ether derivative of ravuconazole) ([3]; 5° C., 1 Week): 98.47 Area Percent | Area Percent (AP as phosphonoxoxymethyl ether derivative of ravuconazole) ([3]; 5° C., 2 Weeks): 99.60 Area Percent | Area Percent (AP as phosphonoxoxymethyl ether derivative of ravuconazole) ([3]; 5° C., 5 Days): 99.59 Area Percent | Area Percent (AP as phosphonoxoxymethyl ether derivative of ravuconazole) ([3]; 25° C./60% RH (Closed), 1 Week): 99.66 Area Percent | Area Percent (AP as phosphonoxoxymethyl ether derivative of ravuconazole) ([3]; 25° C./60% RH (Closed), 2 Weeks): 99.21 Area Percent | Area Percent (AP as phosphonoxoxymethyl ether derivative of ravuconazole) ([3]; 25° C./60% RH (Closed), 5 Days): 99.59 Area Percent | Area Percent (AP as phosphonoxoxymethyl ether derivative of ravuconazole) ([3]; 25° C./60% RH (Open), 1 Week): 99.65 Area Percent | Area Percent (AP as phosphonoxoxymethyl ether derivative of ravuconazole) ([3]; 25° C./60% RH (Open), 2 Weeks): 99.42 Area Percent | Area Percent (AP as phosphonoxoxymethyl ether derivative of ravuconazole) ([3]; 25° C./60% RH (Open), 5 Days): 99.61 Area Percent | Area Percent (AP as phosphonoxoxymethyl ether derivative of ravuconazole) ([3]; 40° C./75% RH (Closed), 1 Week): 99.05 Area Percent | Area Percent (AP as phosphonoxoxymethyl ether derivative of ravuconazole) ([3]; 40° C./75% RH (Closed), 2 Weeks): 97.90 Area Percent | Area Percent (AP as phosphonoxoxymethyl ether derivative of ravuconazole) ([3]; 40° C./75% RH (Closed), 5 Days): 99.20 Area Percent | Area Percent (AP as phosphonoxoxymethyl ether derivative of ravuconazole) ([3]; 40° C./75% RH (Open), 1 Week): 98.76 Area Percent | Area Percent (AP as phosphonoxoxymethyl ether derivative of ravuconazole) ([3]; 40° C./75% RH (Open), 2 Weeks): 96.90 Area Percent | Area Percent (AP as phosphonoxoxymethyl ether derivative of ravuconazole) ([3]; 40° C./75% RH (Open), 5 Days): 98.97 Area Percent | Area Percent (AP as phosphonoxoxymethyl ether derivative of ravuconazole) ([3]; 60° C., 1 Week): 99.70 Area Percent | Area Percent (AP as phosphonoxoxymethyl ether derivative of ravuconazole) ([3]; 60° C., 2 Weeks): 99.73 Area Percent | Area Percent (AP as phosphonoxoxymethyl ether derivative of ravuconazole) ([3]; 60° C., 5 Days): 99.70 Area Percent | Area Percent (AP as phosphonoxoxymethyl ether derivative of ravuconazole) ([3]; HIL/UV (Controlled), 1 Week): 99.64 Area Percent | Area Percent (AP as phosphonoxoxymethyl ether derivative of ravuconazole) ([3]; HIL/UV (Controlled), 2 Weeks): 99.68 Area Percent | Area Percent (AP as phosphonoxoxymethyl ether derivative of ravuconazole) ([3]; HIL/UV (Controlled), 5 Days): 99.60 Area Percent | Area Percent (AP as phosphonoxoxymethyl ether derivative of ravuconazole) ([3]; HIL/UV (Exposed), 1 Week): 98.68 Area Percent | Area Percent (AP as phosphonoxoxymethyl ether derivative of ravuconazole) ([3]; HIL/UV (Exposed), 2 Weeks): 99.68 Area Percent | Area Percent (AP as phosphonoxoxymethyl ether derivative of ravuconazole) ([3]; HIL/UV (Exposed), 5 Days): 99.61 Area Percent | Area Percent (AP as phosphonoxoxymethyl ether derivative of ravuconazole) ([3]; Initial): 99.56 Area Percent

CC(C)O.C[C@@H](c1nc(-c2ccc(C#N)cc2)cs1)[C@@](Cn1cncn1)(OCOP(=O)(O)O)c1ccc(F)cc1F.NCCCC[C@H](N)C(=O)O [Example 5, ((2R,3R)-3-(4-(4-cyanophenyl)thiazol-2-yl)-2-(2,4-difluorophenyl)-1-(1H-1,2,4-triazol-1-yl)butan-2-yloxy)methyl dihydrogen phosphate mono-lysine salt isopropyl alcohol solvate]
weight change for adsorption [1]: < 0.5%
